Measured values taken from patent publication US20130129675A1, “INTERFERON THERAPIES IN COMBINATION WITH BLOCKADE OF STAT3 ACTIVATION” (BOARD OF REGENTS, THE UNIVERSITY OF TEXAS SYSTEM, priority 2009, published 2013).

Legend:
[1] = tested on: intracerebral B16 melanoma / LMD; assay: Etiology of death (LMD or tumor progression) in intracerebral B16 model; format: in vivo, C57BL/6J mice; settings: for animals with LMD at death: autopsy at treatment failure, control 75%
From the text: Both the control group (n=8) and in those treated with a sub-therapeutic dose of WP1193 (n=9) had macroscopic evidence of LMD, 75% and 67%, respectively, (Data not shown). In contrast, in those mice treated with IFN-α (n=6) or the combination of IFN-α and WP1193 (n=4), only 17% in the former and none of the animals treated with the combination died of LMD (FIG. 5). As would be expected, in a sub-analysis within each treatment group, mice that developed LMD died sooner than did those that died of tumor. Specifically, in the control group, median survival was 16.7±0.7 days in those mice that developed LMD and 18.5±1.5 days in those that died of tumor. Furthermore, in the sub-therapeutic WP1193 group, median survival was 17.7±0.3 days in mice that developed LMD and 20±2.1 days in those that died of tumor. In contrast, within the IFN-α treatment group, the median survival of mice with progressive tumor was 25.8±2.5 days, which was further increased to 29.7±5.5 days in the combination treatment group. Within individual treatment groups there was insufficient power to draw statistically meaningful conclusions; however when we assessed all mice who died of LMD, the median survival was 16.9±0.4 days compared with 24.7±2 days for mice dying of tumor progression (P=0.0006), indicating this model system conforms to the negative prognostic influence of LMD observed in human patients.

[2] = tested on: NK1.1+ NK cells from splenocytes; assay: NK cell activating receptors (flow cytometry); format: cell-based, mice; settings: WP1193 2 μM, IFN-α 20 ng/ml, 24 hours (FIGS. 6C and 6D)
Protocol: Spleens from 4- to 6-week-old female mice were harvested and disassociated into a single-cell suspension as described above. Splenocytes were seeded at a density of 4×10^6 cells/well in 24-well culture plates and cultured with the RPMI 1640 medium in absence or presence of WP1193 (2 μM) and/or INF-α (20 ng/ml) for 24 hours. Afterwards, the cells were harvested and washed twice in PBS with 5% FCS, resuspended in staining buffer and labeled with FITC- or PE-conjugated anti-mouse NK1.1 (eBioscience, San Diego, Calif.) to identify the NK population. […] Following incubation, the cells were washed twice with FACS buffer and then analyzed with a BD FACSCalibur with gates set for viable splenocytes.
Because we observed NK and CD8+ T cell-mediated anti-tumor cytotoxicity were enhanced with combinational therapy, to ascertain if either IFN-α, WP1193 or both were augmenting the expression of MHC or NK activating receptors or their ligands, splenocytes and B16 cells were treated with RPMI 1640 medium (control), WP1193 (2 μM), IFN-α (20 ng/ml), or IFN-α (20 ng/ml)+WP1193 (2 μM) for 24 hours. The NK-activating ligands (Rae-1, H60 and CD155) and MHC (I and II) on B16 cells and the NK-activating receptors (NKG2D, KLRD1, NKp46 and DNAM-1) on NK1.1+ NK cells were analyzed by flow cytometric analysis.

[3] = tested on: B16 target cells (NK1.1+CD3− NK effector cells); assay: NK cell cytotoxicity assay against melanoma cells; format: cell-based, mice; settings: WP1193 2 μM, IFN-α 20 ng/ml, 48 h, control 8.8
Protocol: Splenocytes were prepared as described above. NK1.1+CD3− NK effector cells or CD3+CD8+ T effector cells were sorted from splenocytes on a FACSAria Cell Sorter (BD Biosciences) with FITC-conjugated anti-mouse NK1.1 (eBioscience), PE-conjugated anti-CD3, and allophycocyanin (APC)-conjugated anti-CD8 antibodies (Miltenyi Biotec, Auburn, Calif.). B16 target cells were prepared as described above. The ratio of NK1.1+CD3− NK effector cells or CD8+ T effector cells to B16 target cells was 10:1 and 5:1, respectively. In the presence of NK1.1+CD3− NK cells or CD8+ T cells, treatment groups consisted of B16 target cells alone; B16 cells with 2 μM of WP1193; B16 cells with 20 ng/ml of IFN-α; B16 cells with 2 µM of WP1193 and 20 ng/ml of IFN-α. After 48 hours of incubation, the CFSE-labeled B16 melanoma cells were removed from the plates with trypsin and analyzed by FACS. Then, B16 cells were stained with PI (BD Biosciences) to distinguish viable cells from nonviable cells. B16 cells that were stained with CFSE and PI were considered nonviable. Flow cytometric acquisition of the B16 target cells was performed with a FACSCalibur flow cytometer (BD Biosciences), and data analysis was performed using FlowJo software (TreeStar). […]

[4] = sub-analysis within treatment group

N#C/C(=C\c1cccc(Br)n1)C(=O)N[C@H](c1ccccc1)C1CC1 [WP1193, (S,E)-3-(6-bromopyridin-2-yl)-2-cyano-N-(cyclopropyl(phenyl)methyl)acrylamide]
animals with LMD at death [1]: 67%
median survival in mice that developed LMD [1, 4]: 17.7 ± 0.3 days
median survival in mice that died of tumor [1, 4]: 20 ± 2.1 days
NKG2D, KLRD1, NKp46 and DNAM-1 on NK cells [2]: did not appear to be up-regulated
% of B16 Killimg [3]: 10.9%

IFN-α
animals with LMD at death [1]: 17%
median survival in mice that died of tumor [1, 4]: 25.8 ± 2.5 days
NKG2D, KLRD1, NKp46 and DNAM-1 on NK cells [2]: did not appear to be up-regulated
% of B16 Killimg [3]: 12.5%
